Measured values: patent EP0068324A2, “Microcapsule preparation for reducing increased intracranial pressure and a process for preparing the same” (Tanabe Seiyaku Co., Ltd., priority 1981, dated 1983)

Assay: in vivo
Conditions: mouse, po, mice, orally administered, measured one week after administration
Source text: The microcapsule preparation containing a propanol derivative of the present invention can reduce the intracranial pressure in an extremely small amount, which may be by a different mechanism from the hyperosmolar dehydrating effect by the known intravenous injection of a large amount of hypertonic solution, and the therapeutic effect is large and durable without showing any side effect such as a rebound increase of the intracranial pressure. The propanol derivative (I) of the present invention is low toxic and highly safeful.

With `COc1cc(NC(C)=O)ccc1OCC(O)CN1CCN(c2cccc(F)c2)CC1` (stereo not shown) [1-(4-Acetamido-2-methoxyphenoxy)-3-[4-(3-fluorophenyl)piperazino]-2-propanol] as the compound, how does the LD50 at 168 h read?
Its LD50 at 168 h is about 1500 mg/kg.
